In patent publication US20240059710A1, “KRAS G12D Inhibitors” (Jacobio Pharmaceuticals Co., Ltd., priority 2020, published 2024) one finds IC50 data, which are given here for 26 compounds.

In test [1] the target is T1, GDP-loaded HIS-KRAS (G12D, aa 1-169) (Homo sapiens, UniProt P01116, G12D).
T1 construct: GDP-loaded HIS-KRAS (G12D, aa 1-169)
In words: SOS1 catalyzed nucleotide exchange assay. The format is biochemical. The settings on record: SOS1 ExD, TR-FRET, 4 hours at 25° C. The procedure:
1. SOS1 Catalyzed Nucleotide Exchange Assay
GDP-loaded HIS-KRAS (G12D, aa 1-169) was pre-incubated with a compound in the presence of 10 nM GDP in a 384-well plate (Greiner) for 15 min, then purified SOS1 ExD (Flag tag, aa 564-1049), BODIPY™ FL GTP (Invitrogen) and MAb (monoclonal antibody) Anti 6HIS-Tb cryptate Gold (Cisbio) were added to the assay wells (Final concentration: 1.5 nM GDP-loaded HIS-KRAS (G12D), 5 nM GDP, 0.5 μM SOS1 ExD, 80 nM BODIPY™ FL GTP, 52.5 ng/mL MAb Anti 6HIS-Tb cryptate Gold) and incubated for 4 hours at 25° C. Wells containing same percent of DMSO served as vehicle control, and wells without KRAS served as low control. TR-FRET signals were read on Tecan Spark multimode microplate reader. The parameters were F486: Excitation 340 nm, Emission 486 nm, Lag time 100 μs, Integration time 200 μs; F515: Excitation 340 nm, Emission 515 nm, Lag time 100 μs, Integration time 200 μs. TR-FRET ratios for each individual wells were calculated by equation: TR-FRET ratio=(Signal F515/Signal F486)*10000. The percent of activation of compounds treated wells were normalized between vehicle control and low control (% Activation=(TR-FRET ratioCompound treated−TR-FRET ratioLow control)/(TR-FRET ratioVehicle control−TR-FRET ratioLow control)*100%). Then the data were analyzed either by fitting a 4-parameter logistic model or by Excel to calculate IC50 values.

The target of test [2] is T2, GppNp-loaded HIS-KRAS (G12D, aa 1-169) / cRAF RBD (Homo sapiens, UniProt P01116, G12D).
T2 construct: GppNp-loaded HIS-KRAS (G12D, aa 1-169)
In words: GTP-KRAS and cRAF interaction assay. The format is binding. The settings on record: HTRF, 2 hours at 25° C. The procedure: 2. GTP-KRAS and cRAF Interaction Assay
GppNp-loaded HIS-KRAS (G12D, aa 1-169) was pre-incubated with a compound in the presence of 200 µM GTP in a 384-well plate (Greiner) for 15 min, then cRAF RBD (GST tag, aa 50-132, CreativeBioMart), MAb Anti GST-d2 (Cisbio) and MAb Anti 6HIS-Tb cryptate Gold (Cisbio) were added to the assay wells (Final concentration: 2.0 nM GppNp-loaded HIS-KRAS (G12D), 100 μM GTP, 35 nM cRAF RBD, 1 μg/mL MAb Anti GST-d2, 52.5 ng/mL MAb Anti 6HIS-Tb cryptate Gold) and incubated for 2 hours at 25° C. Wells containing same percent of DMSO served as vehicle control, and wells without KRAS served as low control. HTRF signals were read on Tecan Spark multimode microplate reader and HTRF ratios were calculated under manufacturer's instructions. The percent of activation of compounds treated wells were normalized between vehicle control and low control (% Activation=(HTRF ratioCompound treated−HTRF ratioLow control)/(HTRF ratioVehicle control−HTRF ratioLow control)*100). Then the data were analyzed either by fitting a 4-parameter logistic model or by Excel to calculate IC50 values.

A further test concerns AsPC-1. In words: Cell growth inhibition assay (AsPC-1). The format is cell-based. The settings on record: Homo sapiens, ASPC1, 144 h; AsPC-1, 6 days incubation, CellTiter-Glo. How it is done:
4. Cell Growth Inhibition Assay
AsPC-1 cultured in RPMI-1640 medium (Gibco) containing 10% fetal bovine serum (Gibco). Cells in culture medium were plated in 96-well plates at a concentration of 1000 cells/well ([…]) and allowed to attach overnight.
The next day, compounds were diluted in culture medium and added to the plates. After 6 days incubation in a 37° C./5% CO2 cell incubator, the cell viability was detected by CellTiter-Glo® Luminescent Cell Viability Assay kit (Promega). Luminescent signals were read on Tecan Spark multimode microplate reader and analyzed using a 4-parameter logistic model to calculate IC50 values.

Test [3] deals with AGS cells expressing KRAS G12D. In words: Phospho-ERK1/2(THR202/TYR204) HTRF assay. The format is cell-based. The settings on record: Homo sapiens, 2 hours incubation, read-out: AGS p-ERK IC50. How it is done:
AGS cells expressing KRAS G12D were cultured in F12K medium (Gibco) containing 10% fetal bovine serum (Gibco). The AGS cells in culture medium were seeded in 96-well plates at a concentration of 40,000 cells/well and then put in a 37° C./5% CO2 cell incubator to incubate overnight. The next day, culture medium was removed and the compound diluted in assay medium (F12K, 0.1% FBS) was added in each well. After 2 hours incubation in a 37° C./5% CO2 cell incubator, the assay medium in 96-well plates was removed, then 50 μL of 1× blocking reagent-supplemented lysis buffer (Cisbio) was added and the plates were incubated at 25° C. for 45 min with shaking. 10 μL of cell lysates from the 96-well plates were transferred to a 384-well plate (Greiner) containing 2.5 μL/well HTRF® pre-mixed antibodies (Cisbio 64AERPEH). Incubate 4 hours at 25° C. and then read HTRF signals on Tecan Spark multimode microplate reader. The data were analyzed using a 4-parameter logistic model to calculate IC50 values.

Molecules are shown by their SMILES.

T1 sequence (P01116 1-169 isoform P01116-2 G12D): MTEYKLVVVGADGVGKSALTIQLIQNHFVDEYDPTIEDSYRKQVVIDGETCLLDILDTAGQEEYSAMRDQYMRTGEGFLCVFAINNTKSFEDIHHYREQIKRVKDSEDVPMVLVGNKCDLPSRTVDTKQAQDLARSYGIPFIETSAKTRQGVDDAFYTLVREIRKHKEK
T2 sequence (P01116 1-169 isoform P01116-2 G12D): as above

`Oc1cc(-c2c(Cl)cc3c(N4CC5CCC(C4)N5)nc(OCC4(CN5CCOCC5)CC4)nc3c2F)c2c(Cl)cccc2c1` [Compound 37] came in with an IC50 in test [1] of 51.4 nM.
Same read-out and setting: in the case of `CCc1cccc2cc(O)cc(-c3c(Cl)cc4c(N5CC6CCC(C5)N6)nc(OCC5(CN6CCOCC6)CC5)nc4c3F)c12` [Compound 36] it was 32.8 nM.
In the case of `C#Cc1cccc2cc(O)cc(-c3c(C)cc4c(N5CC6CCC(C5)N6)nc(OCC5(CN6CCOCC6)CC5)nc4c3F)c12` (single isomer, unassigned) [Compound 40A], the IC50 in test [1] is 92.1 nM; in test [2] it was 1610 nM.
Taken in the same sequence, the figures for `C#Cc1cccc2cc(O)cc(-c3c(Cl)cc4c(N5CC6CCC(C5)N6)nc(OC[C@@]56CCCN5C[C@H](F)C6)nc4c3F)c12` (single isomer, unassigned) [Compound 72A] were 85.9 nM and 1480 nM.
Regarding `C#Cc1cccc2cc(O)cc(-c3c(F)cc4c(N5CC6CCC(C5)N6)nc(OCC5(CN6CCOCC6)CC5)nc4c3F)c12` (single isomer, unassigned) [Compound 41A], the results for the IC50 in test [1] and in test [2] were 120 nM and 417 nM, respectively.
With `C#Cc1c(F)ccc2cc(O)cc(-c3c(Cl)cc4c(N5CC6CCC(C5)N6)nc(OCC5(CN6CCOCC6)CC5)nc4c3F)c12` (single isomer, unassigned) [Compound 99B], the IC50 in test [1] worked out at 0.403 nM; in test [2] it was 13.5 nM.
For `C#Cc1cccc2cc(O)cc(-c3ccc4c(N5CCNC[C@H]5C)nc(OC[C@@]56CCCN5C[C@H](F)C6)nc4c3F)c12` [Compound 69], the IC50 worked out at 25.1 nM in test [1], 781 nM in test [2] and 1070 nM with AsPC-1.
Consider `Oc1cc(-c2c(Cl)cc3c(N4CC5CCC(C4)N5)nc(OCC4(CN5CCOCC5)CC4)nc3c2F)c2c(F)cccc2c1` [Compound 53], for which the half-maximal inhibitory concentration (IC50) in test [1] is 57.1 nM; in test [2], 853 nM; in test [3], 99.6 nM.
On to `C#Cc1cccc2cc(O)cc(-c3ccc4c(N5C6CNCC5C6)nc(OCC5(CN6CCOCC6)CC5)nc4c3F)c12` [Compound 56], for which the values for the concentration for half-maximal inhibition (IC50) in test [1] and in test [2] were 146 nM and 1910 nM, respectively.
`C#Cc1cccc2cc(O)cc(-c3c(C#N)cc4c(N5CC6CCC(C5)N6)nc(OCC5(CN6CCOCC6)CC5)nc4c3F)c12` (single isomer, unassigned) [Compound 60A]: the IC50 in test [1] was found to be 766 nM; in test [2], 7690 nM.
The matching figures for `C#Cc1c(F)ccc2cc(O)cc(-c3c(Cl)cc4c(N5CC6CCC(C5)N6)nc(OCC5(CN6CCOCC6)CC5)nc4c3F)c12` (single isomer, unassigned) [Compound 99A]: 101 nM and 2070 nM.
With `C#Cc1cccc2cc(O)cc(-c3c(Cl)cc4c(N5CC6CCC(C5)N6)nc(OCC5(CN6CCOCC6)CC5)nc4c3Cl)c12` (single isomer, unassigned) [Compound 107A], the IC50 in test [1] was 783 nM; in test [2] it was more than 10000 nM.
The matching figures for `C#Cc1cccc2cc(O)cc(-c3c(C4CC4)cc4c(N5CC6CCC(C5)N6)nc(OCC5(CN6CCOCC6)CC5)nc4c3F)c12` (single isomer, unassigned) [Compound 38A]: approximately 1000 nM and 8300 nM.
Taken in the same sequence, the figures for `C#Cc1cccc2cc(O)cc(-c3c(SC(F)(F)F)cc4c(N5CC6CCC(C5)N6)nc(OCC5(CN6CCOCC6)CC5)nc4c3F)c12` (single isomer, unassigned) [Compound 59A] were more than 100 nM and more than 1000 nM.
In the case of `C#Cc1cccc2cc(O)cc(-c3ccc4c(N5[C@H]6CN[C@H](C6)[C@H]5CC#N)nc(OCC5(CN6CCOCC6)CC5)nc4c3F)c12` [Compound 128], the values for the IC50 in test [1] and in test [2] were more than 100 nM and 519 nM, respectively.
In the case of `C#Cc1cccc2cc(O)cc(-c3ccc4c(N5CCNC[C@H]5C)nc(OCC5(CN6CCOCC6)CC5)nc4c3F)c12` [Compound 82], the IC50 in test [2] is more than 1000 nM.
On to `C#Cc1cccc2cc(O)cc(-c3ccc4c(N5C[C@H]6C[C@@H]5CN6)nc(OCC5(CN6CCOCC6)CC5)nc4c3F)c12` [Compound 54], for which the results for the IC50 in test [1] and in test [2] were 89.8 nM and 356 nM, respectively.
Taken in the same sequence, the figures for `Oc1cc(Cl)c(C(F)(F)F)c(-c2ccc3c(N4CC5CCC(C4)N5)nc(OC[C@@]45CCCN4C[C@H](F)C5)nc3c2F)c1` [Compound 85] were 69.1 nM and 2210 nM.
Taken in the same sequence, the figures for `C#Cc1c(F)ccc2cccc(-c3ccc4c(N5CC6CCC(C5)N6)nc(OCC5(CN6CCOCC6)CC5)nc4c3F)c12` [Compound 93] were 93.2 nM and 2180 nM.
Compound `C#Cc1cccc2cc(O)cc(-c3c(Cl)cc4c(N5CC6CCC(C5)N6)nc(OCC5(CN6CCOCC6)CC5)nc4c3F)c12` (single isomer, unassigned) [Compound 35A] displayed an IC50 in test [1] of 651 nM.
Turning to `Oc1cc(-c2ccc3c(N4CC5CCC(C4)N5)nc(OCC4(CN5CCOCC5)CC4)nc3c2F)c2cccc(F)c2c1` [Compound 50], the IC50 in test [1] amounted to 56.9 nM; in test [2], 1110 nM; in test [3], 441 nM.
Take `C#Cc1cccc2cc(O)cc(-c3ccc4c(N5C6CCC5CNC6)nc(OC[C@@]56CCCN5C[C@H](F)C6)nc4c3F)c12` [Compound 70]: the concentration for half-maximal inhibition (IC50) in test [1] was 8.43 nM; in test [2] it was 59.1 nM; with AsPC-1 it was 140 nM.
On to `Oc1cc(Cl)c(C(F)(F)F)c(-c2c(Cl)cc3c(N4CC5CCC(C4)N5)nc(OC[C@@]45CCCN4C[C@H](F)C5)nc3c2F)c1` [Compound 84], for which the IC50 came to 35.4 nM in test [1] and 325 nM in test [2].
As to `CCc1cccc2cc(O)cc(-c3c(C4CC4)cc4c(N5CC6CCC(C5)N6)nc(OCC5(CN6CCOCC6)CC5)nc4c3F)c12` [Compound 39], the IC50 in test [1] worked out at 322 nM; in test [2] it was 1410 nM.
For `Oc1cc(-c2c(Cl)cc3c(N4CC5CCC(C4)N5)nc(OCC4(CN5CCOCC5)CC4)nc3c2F)c2cccc(F)c2c1` [Compound 92], the concentration for half-maximal inhibition (IC50) in test [1] came to 152 nM; in test [2], 3960 nM.
The matching figures for `C#Cc1cccc2cc(O)cc(-c3ccc4c(N5CCNCC5CC#N)nc(OCC5(CN6CCOCC6)CC5)nc4c3F)c12` (racemic) [Compound 134]: 117 nM and 760 nM.
